From patent US9247750B2, “Polyenylcyclopropanecarboxylic esters with high insecticidal activity” (Endura S.P.A., priority 2007, dated 2016)

Experiments:
Type in all cases: in vivo
Aedes aegypti [1] = experiment: Insecticide effectiveness in the vapour phase against mosquitoes, impregnated paper unit in 20 m^3 room (Example 5); conditions: 5 mg/unit; for % mortality 24 h: 24th hour from start of test; for % Knock-down 8 h: at end of 8th hour; for Knock-down time KT10 / Knock-down time KT50 / Knock-down time KT90: average of 3 cages
Procedure: (§1) Test units consisting of a paper support 20 cm×10 cm in size were impregnated with the compound of example 3 and, for comparative purposes, with the reference compounds transfluthrin and metofluthrin, at an amount of 5.00 mg/unit for each compound (pure).
(§2) Using a common laboratory stand, the test unit was placed at a height of about 30 cm from the ground along one side of a 20 m^3 room (L 3.00 m×D 2.49 m×H 2.69 m). In order to homogenize the insecticidal air within the room, a small electric fan was placed on the floor diagonal to the surface of the unit, in the is nearest corner at a distance of about 50 cm from the unit. Three metal cages (L 8.4 cm×Ø 8.0 cm×mesh 1.0 mm) for every mosquito species, each containing 20 3-4 day old individuals of mixed sex, were placed along the other three sides of the room, at a height of 1.80 m from the ground and at a distance of 0.45 m from the respective walls. During the test the room was kept closed and temperature and humidity were controlled (T 23-26° C., RH 49-61%).
(§3) The fan was switched on and left on for 8 continuous hours. The times needed to reach 10%, 50% and 90% insect knock-down (KT10, KT50 and KT90, respectively) were recorded.
(§4) Every 2 hours and up to the 6th hour after the fan was switched on, new cages were introduced containing insects (set of 3 cages for each species).
(§5) At the end of the 8th hour, the percentage of insects knocked down in all the cages was determined, then the insects were removed from the room and transferred into an uncontaminated atmosphere within closed containers containing a sugary solution. The percentage mortality was recorded at the 24th hour from the start of the test.
(§6) The results obtained are summarized in tables 1 and 2 and the data are averages for the 3 cages.

Culex quinquefasciatus [2] = experiment: as above; conditions: 5 mg/unit; for % mortality 24 h: 24th hour from start of test; for % Knock-down 8 h: at end of 8th hour; for Knock-down time KT10 / Knock-down time KT50 / Knock-down time KT90: average of 3 cages
Procedure: as §1, §2, §3, §4, §5, §6

Blattella germanica = experiment: Effectiveness of residual insecticide on surfaces (glazed tiles) against cockroaches (Example 6); conditions: for Time to reach 100% knock-down followed by death: 50 mg/m^2 on glazed tiles
Procedure: Solutions of the compound of example 3 in acetone and, for comparison, of the reference compounds Transfluthrin and Metofluthrin were applied from a distance of 12 cm onto glazed tiles (Ostara model, 15×15 cm=225 cm^2) by means of a suitable glass sprayer, so as to obtain an applied amount of pure compound equal to 50 mg/m^2. After treatment the tiles were transferred to and maintained in a closed test room at controlled temperature and humidity (24-25° C., RH 50-60%). Glass rings (H 5.5 cm×Ø 9.5 cm), with their internal surface treated with talc, and each containing 5 cockroaches, were positioned at the centre of the tiles for each of the assessment times of 24 hours, 3, 7, 10 and 14 days following treatment. For each assessment day, the insects were maintained on the surface for 24 hours and the time (hours, minutes) necessary to attain 100% knock-down followed by death, or percentage knock-down at the end of 24 hours, were recorded.

Aedes aegypti [3] = experiment: Insecticide effectiveness in the vapour phase against mosquitoes, impregnated paper unit in 20 m^3 room (Example 9); conditions: 5 mg/unit; for % mortality 24 h: 24th hour from start of test; for % Knock-down 8 h: at end of 8th hour; for Knock-down time KT10 / Knock-down time KT50 / Knock-down time KT90: average of 3 cages
Procedure: as §2, with “Test units consisting of a paper support 20 cm×10 cm in size were impregnated with the compound of examples 3, 7 and 8 and, for comparative purposes, with the reference compounds transfluthrin and metofluthrin, at an amount of 5.00 mg/unit for each compound (pure). Using” for “Using”, “the” for “the is”, “49-61%). The fan was switched on and left on for 8 continuous hours. The times needed to reach 10%, 50% and 90% insect knock-down (KT10, KT50 and KT90, respectively) were recorded.” for “49-61%).”
as §4, §5, §6

Culex quinquefasciatus [4] = experiment: as above; conditions: 5 mg/unit; for % mortality 24 h: 24th hour from start of test; for % Knock-down 8 h: at end of 8th hour; for Knock-down time KT10 / Knock-down time KT50 / Knock-down time KT90: average of 3 cages
Procedure: as §2, with “Test units consisting of a paper support 20 cm×10 cm in size were impregnated with the compound of examples 3, 7 and 8 and, for comparative purposes, with the reference compounds transfluthrin and metofluthrin, at an amount of 5.00 mg/unit for each compound (pure). Using” for “Using”, “the” for “the is”, “49-61%). The fan was switched on and left on for 8 continuous hours. The times needed to reach 10%, 50% and 90% insect knock-down (KT10, KT50 and KT90, respectively) were recorded.” for “49-61%).”
as §4, §5, §6

## C=CC=C[C@@H]1[C@@H](C(=O)OCc2c(F)c(F)cc(F)c2F)C1(C)C (mixture of isomers) [Example 3, 2,3,5,6-tetrafluorobenzyl(1R,3R)-3-((E/Z)-Buta-1,3-dienyl)-2,2-dimethylcyclopropane-1-carboxylate]
Aedes aegypti [1]; insect exposure after 0 hours
  % mortality 24 h: 100%
  % Knock-down 8 h: 100%
  Knock-down time KT10: 16 min
  Knock-down time KT50: 19 min
  Knock-down time KT90: 25 min
Aedes aegypti [1]; insect exposure after 2 hours
  % mortality 24 h: 100%
  % Knock-down 8 h: 100%
  Knock-down time KT10: 4 min
  Knock-down time KT50: 6 min
  Knock-down time KT90: 9 min
Aedes aegypti [1]; insect exposure after 4 hours
  % mortality 24 h: 100%
  % Knock-down 8 h: 100%
  Knock-down time KT10: 4 min
  Knock-down time KT50: 6 min
  Knock-down time KT90: 11 min
Culex quinquefasciatus [2]; insect exposure after 0 hours
  % mortality 24 h: 100%
  % Knock-down 8 h: 100%
  Knock-down time KT10: 20 min
  Knock-down time KT50: 23 min
  Knock-down time KT90: 31 min
Culex quinquefasciatus [2]; insect exposure after 2 hours
  % mortality 24 h: 100%
  % Knock-down 8 h: 100%
  Knock-down time KT10: 6 min
  Knock-down time KT50: 8 min
  Knock-down time KT90: 12 min
Culex quinquefasciatus [2]; insect exposure after 4 hours
  % mortality 24 h: 100%
  % Knock-down 8 h: 100%
  Knock-down time KT10: 6 min
  Knock-down time KT50: 10 min
  Knock-down time KT90: 18 min
Blattella germanica; 1 day after treatment
  Time to reach 100% knock-down followed by death: 15′ minutes
Blattella germanica; 3 days after treatment
  Time to reach 100% knock-down followed by death: 15′ minutes
Blattella germanica; 7 days after treatment
  Time to reach 100% knock-down followed by death: 15′ minutes
Blattella germanica; 10 days after treatment
  Time to reach 100% knock-down followed by death: 15′ minutes
Blattella germanica; 14 days after treatment
  Time to reach 100% knock-down followed by death: 15′ minutes
Blattella germanica; table 3
  time of exposure to total knock-down (100%): ≤ 15 min
Aedes aegypti [3]; insect exposure after 0 hours
  % mortality 24 h: 100%
  % Knock-down 8 h: 100%
  Knock-down time KT10: 16 min
  Knock-down time KT50: 20 min
  Knock-down time KT90: 26 min
Aedes aegypti [3]; insect exposure after 2 hours
  % mortality 24 h: 100%
  % Knock-down 8 h: 100%
  Knock-down time KT10: 5 min
  Knock-down time KT50: 8 min
  Knock-down time KT90: 11 min
Aedes aegypti [3]; insect exposure after 4 hours
  % mortality 24 h: 100%
  % Knock-down 8 h: 100%
  Knock-down time KT10: 5 min
  Knock-down time KT50: 8 min
  Knock-down time KT90: 12 min
Culex quinquefasciatus [4]; insect exposure after 0 hours
  % mortality 24 h: 100%
  % Knock-down 8 h: 100%
  Knock-down time KT10: 23 min
  Knock-down time KT50: 28 min
  Knock-down time KT90: 35 min
Culex quinquefasciatus [4]; insect exposure after 2 hours
  % mortality 24 h: 100%
  % Knock-down 8 h: 100%
  Knock-down time KT10: 7 min
  Knock-down time KT50: 11 min
  Knock-down time KT90: 15 min
Culex quinquefasciatus [4]; insect exposure after 4 hours
  % mortality 24 h: 100%
  % Knock-down 8 h: 100%
  Knock-down time KT10: 8 min
  Knock-down time KT50: 10 min
  Knock-down time KT90: 14 min
